Experimental findings from US6391327B1, “Pesticidal composition” (priority 1998, dated 2002) are described below.

Data set [1] relates to Formosan subterranean termites (Coptotermes formosanus). Kind of data set: Soil tunneling test in glass tube with Formosan subterranean termites. The format is in vivo. Conditions: concentration of application 20 ppm, a week later, three repeats. The method, then:
Three (3) cm of soil was packed into the central inner portion of a glass tube that has an inner diameter of 1.7 cm and is 15 cm long, and on one surface of the soil, 0.7 mL of each aqueous solution that has the examined compound formulated to a determined dilution (examined compound and applied concentration given in table 3). Subsequently, 4% agar was inserted onto both surfaces of the soil, 50 worker Formosan subterranean termites (Coptotermes formosanus) and 5 soldier Formosan subterranean termites were deposited into side of the inner part of the tube wherein no compound was applied, and the tunneled soil condition by the termites was examined a week later. The example was repeated thrice.
Within the results of table 3, A represents a condition wherein the termites tunneled through the surface of the soil of the treated side and the non-treated side, B represents a condition wherein the surface of the soil of the treated side was tunneled through and the agar was tunneled halfway, C represents a condition wherein the surface of the soil of the treated side was incompletely tunneled through and the agar had no visible tunneling.

Data set [2] has as its system housefly (Musca domestica) which is resistant to pyrethroid. The format is in vivo. Particulars: topical, 2 days later, average of 3. The source says:
One half (0.5)μL of the following acetone dissolving solution wherein the concentration was adjusted to set forth a dosage given below, was applied to the back thoracic region of a housefly (Musca domestica) which is resistant to pyrethroid and the mortality was examined 2 days later.

SMILES strings stand for the structures. Like-named read-outs stand apart in the source and are kept apart here.

For the compound `CN1COCN(Cc2cnc(Cl)s2)C1=N[N+](=O)[O-]` [Compound D, 3-[(2-chloro-5-thiazolyl)methyl]-5-methyl-4-nitroiminotetrahydro-1,3,5-oxadiazine], the “results (tunneled soil condition by the termites)” value in data set [1] is reported as “AAA”.

As for `CNC(=N[N+](=O)[O-])NCC1CCOC1` (stereo not shown) [Compound B, 1-(tetrahydrofuran-3-yl)methyl-3-methyl-2-nitroguanidine], the “results (tunneled soil condition by the termites)” value in data set [1] is on record as “ACA”. Besides, the “mortality (%)” value in data set [2] (dosage 0.625 μg per insect) is reported as 10%; in data set [2] (dosage 1.25 μg per insect) it was 45%.

In the case of `C/C(=N\C#N)N(C)Cc1ccc(Cl)nc1` [Compound A, (E)-N^1-[(6-chloro-3-pyridyl)methyl]-N^2-cyano-N^1-methylacetamidine], the “mortality (%)” value in data set [2] (dosage 1.25 μg per insect) turned out to be 15%; in data set [2] (dosage 5 μg per insect) it was 15%; in data set [2] (dosage 10 μg per insect), 5%.

For the compound `C#CCC1=C(C)C(OC(=O)C2C(C=C(C)C)C2(C)C)CC1=O` (mixture of isomers) [Prallethrin, (S)-2-methyl-4-oxo-3-prop-2-ynylcyclopent-2-enyl (1R)-cis,trans-2,2-dimethyl-3-(2-methylprop-1-enyl)cyclopropanecarboxylate], the entries for the “mortality (%)” value in data set [2] (dosage 1.25 μg per insect), in data set [2] (dosage 2.5 μg per insect) and in data set [2] (dosage 5 μg per insect) were 6.7%, 10% and 30%, respectively.
